Results as given in patent US20060094722A1 (Eisai Co., Ltd., priority 2002, published 2006).
Structures can show the parent of a compound that is named as a salt.

These compounds were tested against T1, DPPIV obtained from swine kidney (Sus scrofa, UniProt P22411) (assay: Assay for the DPPIV-inhibiting activity). Settings: DPPIV 10 mU/mL; Gly-Pro-p-nitroanilide 0.33 mM; absorbance 405 nm; read-out: IC50.
T1 construct: DPPIV obtained from swine kidney; from tissue; host or cells: swine kidney
Type: biochemical
Procedure: DPPIV obtained from swine kidney was dissolved in a reaction buffer (50 mM Tris-HCl (pH 7.4)/0.1% BSA) at a fmal concentration of 10 mU/mL. A 110 μL aliquot of this enzyme solution was added to the reaction system, and then 15 μL of an agent was added. The reaction solution was incubated at room temperature for 20 minutes. 25 μL of a solution containing 2 mM Gly-Pro-p-nitroanilide was added to the reaction solution (at the final concentration of 0.33 mM) to start the enzyme reaction. The reaction time was 20 minutes. 25 μL of 1N phosphate solution was added to stop the reaction. […] The degree of inhibition to the enzyme reaction was determined, and IC50 was computed based on the absorbance.

T1 sequence (P22411 whole entry): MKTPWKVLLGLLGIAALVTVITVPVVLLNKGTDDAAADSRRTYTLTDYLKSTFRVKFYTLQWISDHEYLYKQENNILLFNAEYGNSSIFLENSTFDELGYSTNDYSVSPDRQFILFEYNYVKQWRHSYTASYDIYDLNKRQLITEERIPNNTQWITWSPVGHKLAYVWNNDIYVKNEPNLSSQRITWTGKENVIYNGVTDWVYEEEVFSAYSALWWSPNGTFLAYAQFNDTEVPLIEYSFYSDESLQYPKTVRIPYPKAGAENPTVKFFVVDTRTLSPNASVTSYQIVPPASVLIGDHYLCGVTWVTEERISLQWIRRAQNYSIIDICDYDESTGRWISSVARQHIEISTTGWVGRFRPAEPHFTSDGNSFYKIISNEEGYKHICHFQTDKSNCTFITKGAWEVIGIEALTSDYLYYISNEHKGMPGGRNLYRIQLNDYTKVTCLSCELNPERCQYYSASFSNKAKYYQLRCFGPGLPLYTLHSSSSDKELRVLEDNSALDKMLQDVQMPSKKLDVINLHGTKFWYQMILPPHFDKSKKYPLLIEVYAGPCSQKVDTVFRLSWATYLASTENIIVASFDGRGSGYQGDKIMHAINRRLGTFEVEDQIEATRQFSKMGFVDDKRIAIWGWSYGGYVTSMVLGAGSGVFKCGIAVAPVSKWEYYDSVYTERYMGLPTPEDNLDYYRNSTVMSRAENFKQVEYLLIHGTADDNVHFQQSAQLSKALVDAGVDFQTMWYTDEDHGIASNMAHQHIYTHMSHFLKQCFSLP

Row | SMILES | IC50
1 | CC#CCn1c(N2CCNCC2)nc2c1c(=O)n(CC(=O)c1ccccc1)c(=O)n2C [Example 361, 7-(2-Butynyl)-3-methyl-1-[(2-oxo-2-phenyl)ethyl]-8-(piperazin-1-yl)-3,7-dihydropurine-2,6-dione trifluoroacetate] | 0.654 nM
2 | Cn1c(=O)n(CCc2ccccc2)c(=O)c2c1nc(N1CCNCC1)n2-c1ccccc1Cl [Example 377, 7-(2-Chlorophenyl)-3-methyl-1-(2-phenethyl)-8-(piperazin-1-yl)-3,7-dihydropurine-2,6-dione trifluoroacetate] | 8.77 nM
3 | CC#CCn1c(N2CCNCC2)nc2c1c(=O)n(C)c(=O)n2CC(=O)OC [Example 398, Methyl[7-(2-butynyl)-1-methyl-2,6-dioxo-8-(piperazin-1-yl)-1,2,6,7-tetrahydropurin-3-yl]acetate trifluoroacetate] | 237 nM
4 | CC#CCn1c(N2CCNCC2)nc2c1c(=O)n(C)c(=O)n2CC1CCCO1 (centres unmarked) [Example 400, 7-(2-Butynyl)-3-(2-tetrahydrofuranyl)methyl-1-methyl-8-(piperazin-1-yl)-3,7-dihydropurine-2,6-dione trifluoroacetate] | 183 nM
5 | CC#CCn1c(N2CCNCC2)nc2c1c(=O)n(C)c(=O)n2C(C(=O)OC)c1ccccc1 (centres unmarked) [Example 402, Methyl[7-(2-butynyl)-1-methyl-2,6-dioxo-8-(piperazin-1-yl)-1,2,6,7-tetrahydropurin-3-yl]phenylacetate trifluoroacetate] | 354 nM
6 | CC#CCn1c(N2CCNCC2)nc2c1c(=O)n(C)c(=O)n2CC(=O)c1ccccc1 [Example 404, 7-(2-Butynyl)-3-(2-oxo-2-phenethyl)-1-methyl-8-(piperazin-1-yl)-3,7-dihydropurine-2,6-dione trifluoroacetate] | 276 nM
7 | CC#CCn1c(N2CCNCC2)nc2c1c(=O)n(C)c(=O)n2C(C)C(=O)OCC (centres unmarked) [Example 405, Ethyl 2-[7-(2-butynyl)-1-methyl-2,6-dioxo-8-(piperazin-1-yl)-1,2,6,7-tetrahydropurin-3-yl]propionate trifluoroacetate] | 359 nM
8 | CC#CCn1c(N2CCNCC2)nc2c1c(=O)n(C)c(=O)n2CCOCC [Example 407, 7-(2-Butynyl)-3-(2-ethoxyethyl)-1-methyl-8-(piperazin-1-yl)-3,7-dihydropurine-2,6-dione trifluoroacetate] | 275 nM
9 | CC#CCn1c(N2CCNCC2)nc2c1c(=O)n(C)c(=O)n2C(C)C [Example 408, 7-(2-Butynyl)-3-isopropyl-1-methyl-8-(piperazin-1-yl)-3,7-dihydropurine-2,6-dione trifluoroacetate] | 340 nM
10 | CC#CCn1c(N2CCNCC2)nc2c1c(=O)n(C)c(=O)n2CC(=O)C(C)(C)C [Example 409, 7-(2-Butynyl)-3-(3,3-dimethyl-2-oxobutyl)-1-methyl-8-(piperazin-1-yl)-3,7-dihydropurine-2,6-dione trifluoroacetate] | 222 nM
11 | CC#CCn1c(N2CCNCC2)nc2c1c(=O)n(C)c(=O)n2C1CCNC1=O (centres unmarked) [Example 410, 7-(2-Butynyl)-1-methyl-3-(2-oxopyrrolidin-3-yl)-8-(piperazin-1-yl)-3,7-dihydropurine-2,6-dione hydrochloride] | 64.9 nM
12 | CC#CCn1c(N2CCNCC2)nc2c1c(=O)n(CC(=O)c1ccccc1)c(=O)n2CCOCC [Example 413, 7-(2-Butynyl)-3-(2-ethoxyethyl)-1-(2-oxo-2-phenylethyl-8-(piperazin-1-yl)-3,7-dihydropurine-2,6-dione trifluoroacetate] | 1.95 nM
13 | CC#CCn1c(N2CCNCC2)nc2c1c(=O)n(CC(=O)c1ccccc1)c(=O)n2CC(=O)OC [Example 415, Methyl[7-(2-butynyl)-2,6-dioxo-1-(2-oxo-2-phenylethyl)-8-(pipierazin-1-yl)-1,2,6,7-tetrahydropurin-3-yl]acetate trifluoroacetate] | 1.81 nM

Same assay, conditions: IC50 (nM), DPPIV 10 mU/mL; Gly-Pro-p-nitroanilide 0.33 mM; absorbance 405 nm

Row | SMILES | IC50
14 | CC#CCn1c(N2CCNCC2)nc2c1c(=O)n(CC#N)c(=O)n2C [Example 359, [7-(2-Butynyl)-3-methyl-2,6-dioxo-8-(piperazin-1-yl)-2,3,6,7-tetrahydropurin-1-yl]acetonitrile trifluoroacetate] | 353 nM
15 | CC#CCn1c(N2CCNCC2)nc2c1c(=O)n(CCc1ccccc1)c(=O)n2C [Example 367, 7-(2-Butynyl)-3-methyl-1-(2-phenylethyl)-8-(piperazin-1-yl)-3,7-dihydropurine-2,6-dione trifluoroacetate] | 4.56 nM
16 | CC#CCn1c(N2CCNCC2)nc2c1c(=O)n(C)c(=O)n2CC [Example 396, 7-(2-Butynyl)-3-ethyl-1-methyl-8-(piperazin-1-yl)-3,7-dihydropurine-2,6-dione trifluoroacetate] | 197 nM
17 | CC#CCn1c(N2CCNCC2)nc2c1c(=O)n(C)c(=O)n2CCC [Example 403, 7-(2-Butynyl)-3-propyl-1-methyl-8-(piperazin-1-yl)-3,7-dihydropurine-2,6-dione trifluoroacetate] | 266 nM
18 | CC#CCn1c(N2CCNCC2)nc2c1c(=O)n(CCc1ccccc1)c(=O)n2CC(=O)OCC [Example 416, Ethyl[7-(2-butynyl)-2,6-dioxo-1-(2-phenethyl)-8-(piperazin-1-yl)-1,2,6,7-tetrahydropurin-3-yl]acetate hydrochloride] | 4.02 nM
19 | CC#CCn1c(N2CCNCC2)nc2c1c(=O)n(CCc1ccccc1)c(=O)n2CC(=O)N1CCCC1 [Example 418, 7-(2-Butynyl)-3-[2-oxo-2-(pyrrolidin-1-yl)ethyl]-1-(2-phenethyl)-8-(piperazin-1-yl)-3,7-dihydro purine-2,6-dione hydrochloride] | 1.14 nM
20 | CC#CCn1c(N2CCNCC2)nc2c1c(=O)n(CCc1ccccc1)c(=O)n2CC(=O)NC [Example 419, 2-[7-(2-Butynyl)-2,6-dioxo-1-(2-phenethyl)-8-(piperazin-1-yl)-1,2,6,7-tetrahydropurin-3-yl]-N-methylacetamide hydrochloride] | 1.55 nM
21 | CC#CCn1c(N2CCNCC2)nc2c1c(=O)n(CCc1ccccc1)c(=O)n2CC(=O)NC1CC1 [Example 420, 2-[7-(2-Butynyl)-2,6-dioxo-1-(2-phenethyl)-8-(piperazin-1-yl)-1,2,6,7-tetrahydropurin-3-yl]-N-cyclopropyl acetamide hydrochloride] | 1.7 nM
22 | CC#CCn1c(N2CCNCC2)nc2c1c(=O)n(CCc1ccccc1)c(=O)n2CC(=O)Nc1ccccc1 [Example 421, 2-[7-(2-Butynyl)-2,6-dioxo-1-(2-phenethyl)-8-(piperazin-1-yl)-1,2,6,7-tetrahydropurin-3-yl]-N-phenylacetamide hydrochloride] | 3.37 nM
23 | C#CCNC(=O)Cn1c(=O)n(CCc2ccccc2)c(=O)c2c1nc(N1CCNCC1)n2CC#CC [Example 422, 2-[7-(2-Butynyl)-2,6-dioxo-1-(2-phenethyl)-8-(piperazin-1-yl)-1,2,6,7-tetrahydropurin-3-yl]-N-(2-propynyl) acetamide hydrochloride] | 0.472 nM
